A word on the IC50: it is the point on the concentration scale where inhibition reaches its midpoint. High values mean a need for much substance, low ones inhibition by little substance.

The structures appear in SMILES notation.

One assay deals with NF-κB. Nature of the assay: Assay for NF-κB inhibition (luciferase reporter) in PMA-induced SW1353 cells. The conditions noted are these: PMA-induced human chondrosarcoma cells (SW1353); NA = not active at 100 µM. It counts as cell-based. On the procedure: The assay was performed in human chondrosarcoma cells (SW1353, obtained from American Type Culture Collection (ATCC), Manassas, VA, USA). Cells were cultured in 1:1 mixture of DMEM/F12 supplemented with 10% fetal bovine serum (FBS), 100 U/mL penicillin G sodium, and 100 μg/mL streptomycin at 37 °C in an atmosphere of 5% CO2 and 95% humidity. Cells (1.2 × 10^7) were washed once in an antibiotic and FBS-free DMEM/F12, and then resuspended in 500 μL of antibiotic-free DMEM/F12 containing 2.5% FBS. NF-κB luciferase plasmid construct was added to the cell suspension at a concentration of 50 μg/mL and incubated for 5 min at room temperature. The cells were electroporated at 160 V and one 70-ms pulse using BTX disposable cuvettes model 640 (4-mm gap) in a BTX Electro Square Porator T 820 (BTX I, San Diego, CA, USA). The transfected cells were plated to the wells of 96-well plates at a density of 1.25 × 10^5 cells per well. After 24 h, cells were treated with different concentrations of test compound for 30 min before the addition of PMA (70 ng/mL) and incubated for 8 h. Luciferase activity was measured using the Luciferase Assay kit (Promega). Light output was detected on a SpectraMax plate reader. Percent inhibition of luciferase activity was calculated as compared to vehicle control, and IC50 values were obtained from concentration response curves. Parthenolide was used as positive control.
For orientation: In a reporter assay the amount or activity of a reporter protein is the signal.

The next assay has as its system Cryptococcus neoformans. Further details: method as in PMID 27584935. Particulars: against Cryptococcus neoformans; cited from earlier work.
The test system of a further assay is iNOS. Kind of assay: Assay for iNOS inhibition (nitrite by Griess reagent) in LPS-induced macrophages. The format is cell-based. Particulars: Mus musculus, RAW264.7; LPS-induced RAW 264.7 macrophages; NA = not active at 50 µM. How it is done: The assay was performed in mouse macrophages (RAW264.7, obtained from ATCC)) cultured in phenol red free RPMI medium supplemented with 10% bovine calf serum and 100 U/mL penicillin G sodium, and 100 μg/mL streptomycin at 37 °C in an atmosphere of 5% CO2 and 95% humidity. Cells were seeded in 96-well plates (50,000 cells/well) and incubated for 24 h for a confluency of 75% or more. Test samples diluted in serum free medium were added, and after 30 min of incubation, LPS (5 μg/mL) was added and cells were further incubated for 24 h. The concentration of nitric oxide (NO) was determined by measuring the level of nitrite in the cell culture supernatant by using Griess reagent. Percent inhibition of nitrite production by the test compound was calculated in comparison to the vehicle control. IC50 values were obtained from concentration response curves. Parthenolide was used as a positive control.
For orientation: Griess reagent forms a coloured azo dye with nitrite.

Regarding `CC(=O)c1c(O)cc(O)c(C(C)=O)c1O` [Compound 2], the IC50 with NF-κB is 34 ± 8.5 µM; in the assay with iNOS, 19 ± 1.4 µM. In addition, in the assay on Cryptococcus neoformans, the “in vitro antifungal activity” value is recorded as “potent”.

Compound `CC(C)C(=O)c1c(O)cc(O)cc1O` [Compound 3] returned an IC50 with NF-κB of 90 ± 14.1 µM.

For `CC(C)C(=O)c1c(O)cc(O)c(Cc2ccc(Br)cc2)c1O` [Compound 4, 1-[3-(4-Bromo-benzyl)-2,4,6-trihydroxy-phenyl]-2-methyl-propan-1-one], the IC50 in the assay on NF-κB was found to be 37.5 ± 3.5 µM; in the assay with iNOS, 19.5 ± 0.7 µM.

As to `COCOc1cc(OCOC)c(C(=O)C(C)C)c(O)c1Cc1ccc(Br)cc1` [Compound 5, 1-[3-(4-Bromo-benzyl)-2-hydroxy-4,6-bis-methoxymethoxy-phenyl]-2-methyl-propan-1-one], the IC50 with NF-κB was found to be 29 ± 15.5 µM; in the assay on iNOS it was 50 µM.

With `CC(C)C(=O)c1c(O)cc(O)c(Cc2ccc(Cc3c(O)cc(O)c(C(=O)C(C)C)c3O)cc2)c1O` [Compound 6, 2-Methyl-1-{2,4,6-trihydroxy-3-[4-(2,4,6-trihydroxy-3-isobutyryl-benzyl)-benzyl]-phenyl}-propan-1-one], the IC50 came out at 85 ± 21.2 µM with NF-κB and 19 ± 1.4 µM with iNOS.

With `CC(C)C(=O)c1c(O)cc(O)c(Cc2ccc(CN3CCCCC3)cc2)c1O` [Compound 7, 2-Methyl-1-[2,4,6-trihydroxy-3-(4-piperidin-1-ylmethyl-benzyl)-phenyl]-propan-1-one], half-maximal inhibition in the assay on iNOS (IC50) was put at 49 ± 1.4 µM.

Regarding `C=C1C(=O)O[C@H]2[C@H]1CC/C(C)=C/CC[C@@]1(C)O[C@@H]21` [Parthenolide, reference compound], the IC50 came to 20.5 ± 2.9 µM in the assay on NF-κB and 2.5 ± 0.2 µM with iNOS.

Values taken from publication PMC6321231, “Synthesis and Anti-Inflammatory Activities of Phloroglucinol-Based Derivatives” (Molecules, 2018).
